From US5686255A, “Compositions and methods for diagnosing schizophrenia” (priority 1995, dated 1997)
“Also recorded” adds a separate entry of the source.

Assays:
[1] = test system: Chinese hamster ovary cells which express the cloned dopamine D4 receptor; experiment: Spontaneous G protein binding of [35S]GTPγS in membranes of CHO cells expressing the D4 receptor, after cycloleucine pretreatment; type: cell-based; conditions: cells treated with 0.1 mM and 1 mM cycloleucine prior to membrane preparation; versus untreated control membranes; FIG. 5A
Procedure: The effect of cycloleucine, a known MAT inhibitor, on the binding of [^35 S]GTPγS was tested by treating Chinese hamster ovary cells expressing the D4 receptor with 0.1 mM and 1 mM cycloleucine prior to membrane preparation (FIG. 5A).
Chinese hamster ovary (CHO) cells stably expressing a cloned dopamine D4 receptor were grown as monolayers at 37° (95% O2 /5%CO2) in alpha minimum essential medium supplemented with 2.5% fetal calf serum, 2.5% horse serum, 100 units/ml penicillin, 100 μg/ml streptomycin, 0.25 μg/ml fungizone and 400 μg/ml G418.
Cells were washed twice with phosphate-buffered saline (137 mM NaCl, 2.6 mM KCl, 10 mM Na2 HPO4, 1.8 mM KH2 PO4), harvested with a rubber policeman, and pelleted at 4° at 200× g. The pellet was resuspended in 5 ml/dish of lysis buffer (5 mM Tris-HCL, pH 7.5, 5 mM EDTA, 5 mM EGTA, 0.1 mM phenylmethylsulfonyl fluoride) at 4° and was homogenized with a Dounce homogenizer. […]
[^35 S]GTPγS binding was measured with a modification of the assay used by Hilf and Jakobs (Eur J Pharmacol 172: 155-163 (1989)). […] The filters were washed four times (with 4 ml of 50 mM Tris.cndot.HCl, pH 7.5, containing 5 mM MgCl2 and 100 mM NaCl) and then counted in scintillation cocktail. Nonspecific binding was determined in the presence of 10 μM GTPγS and subtracted from total bound radioactivity.

[2] = test system: Chinese hamster ovary cells without the D4 receptor; experiment: Spontaneous [35S]GTPγS binding in CHO cells without the D4 receptor; type: cell-based; conditions: FIG. 5B
Source text: FIGS. 5A and 5B illustrate graphic representations of the effect of cycloleucine on spontaneous G protein binding of [^35 S]GTPγS.

**Q.** How did the “binding of [35S]GTPγS to the membranes (spontaneous G protein activation)” value [1] turn out when `NC1(C(=O)O)CCCC1` [cycloleucine] was run?
**A.** inhibit spontaneous G protein binding of [^35 S]GTPγS; also recorded: progressively reduced by 0.1 mM and 1 mM cycloleucine pretreatment to levels significantly lower than the untreated control membranes

**Q.** What about the “effect on spontaneous [35S]GTPγS binding” value [2] of the same molecule?
**A.** inability of cycloleucine to affect spontaneous [^35 S]GTPγS binding
